Where two headings read alike, the source gives them in different places.
Columns and labels:
T. cruzi trypomastigotes = assay: Proliferation assay of T. cruzi trypomastigotes inside Human Osteoblasts; assay type: cell-based, Trypanosoma cruzi; settings: 48 H treatment
Method: IC50 is median inhibitory concentration. TI is therapeutic index. […] This example further illustrates positives effects of treatment with the present compounds. […] The negative control was treated with 1% DMSO. The positive control was treated with Amp B at […].

[1] = test system: L. major Luciferase promastigotes; assay: Antiparasitic activity in L. major Luciferase promastigotes; assay type: cell-based, Leishmania major; settings: 72 hr
Excerpt: IC50 is median inhibitory concentration. TI is therapeutic index.

T. cruzi Epimastigotes = assay: Activity against T. cruzi epimastigotes; assay type: cell-based, Trypanosoma cruzi

IC50 (T. cruzi trypomastigotes; Trypanosoma cruzi, Osteoblast) [µM] | Structure (SMILES) | Mammalian cells LD50 (μM) Raw 264.7 Macrophages (Raw 264.7 Macrophages; mouse, 48 h) [µM] | other results
< 1.25 | CCOC(=O)c1c(NC(=O)c2cccc(C(F)(F)F)c2)sc2c1CC(C)(C)NC2(C)C [RS3, Ethyl 5,5,7,7-tetramethyl-2-(3-(trifluoromethyl)benzamido)-4,5,6,7-tetrahydro-thieno[2,3-c]pyridine-3-carboxylate] | >40 | 
< 10 | CCOC(=O)c1c(N)sc2c1CC(C)(C)NC2(C)C [RS1, Ethyl 2-amino-5,5,7,7-tetramethyl-4,5,6,7-tetrahydrothieno[2,3-C]pyridine-3-carboxylate] |  | 
 | CCOC(=O)c1c(NC(=O)c2ccc(F)c(C(F)(F)F)c2)sc2c1CC(C)(C)NC2(C)C [GP1-05, Ethyl 2-(4-fluoro-3-(trifluoromethyl)benzamido)-5,5,7,7-tetramethyl-4,5,6,7-tetrahydrothieno[2,3-c]pyridine-3-carboxylate] | 22 | 
7.5 | CCOC(=O)c1c(NC(=O)c2ccc(C(F)(F)F)cc2)sc2c1CC(C)(C)NC2(C)C [RS5, Ethyl 5,5,7,7-tetramethyl-2-(4-(trifluoromethyl)benzamido)-4,5,6,7-tetrahydrothieno[2,3-c]pyridine-3-carboxylate] |  | 
 | CCOC(=O)c1c(NC(=O)c2c(F)c(F)c(F)c(F)c2F)sc2c1CC(C)(C)NC2(C)C [RS4, Ethyl 5,5,7,7-tetramethyl-2-(perfluorobenzamido)-4,5,6,7-tetrahydrothieno[2,3c]pyridine-3-carboxylate] |  | L. major LD50 (μM) Promastigotes [1]: 0.671 µM; IC50 (T. cruzi trypomastigotes): < 0.156 µM; Mammalian cells LD50 (μM) Raw 264.7 Macrophages (Raw 264.7 Macrophages; macrophage cytotoxicity, text: intraperitoneal macrophages (IPΦ) treated for 48 hrs): ~15 µM
 | CCOC(=O)c1c(NC(=O)c2cccc(C(F)(F)F)c2F)sc2c1CC(C)(C)NC2(C)C [GP1-04, Ethyl 2-(2-fluoro-3-(trifluoromethyl)benzamido)-5,5,7,7-tetramethyl-4,5,6,7-tetrahydrothieno[2,3-c]pyridine-3-carboxylate] | 17 | 

Structure (SMILES) | IC50 (T. cruzi trypomastigotes; Trypanosoma cruzi, Osteoblast) [µM] | Mammalian cells LD50 (μM) Raw 264.7 Macrophages (Raw 264.7 Macrophages; mouse, 48 h) [µM] | other results
CCOC(=O)c1c(NC(=O)c2ccc([N+](=O)[O-])s2)sc2c1CC(C)(C)NC2(C)C [RS2, ethyl 5,5,7,7-tetramethyl-2-(5-nitrothiophene-2-carboxamido)-4,5,6,7-tetrahydrothieno[2,3-c]pyridine-3-carboxylate] | < 1.25 | ~32 | T. cruzi LD50 (μM) Epimastigotes (T. cruzi Epimastigotes): ~7.5 µM

Source: US9988395B2, “Antiparasitic compositions and methods utilizing substituted 5,5,7,7-tetramethyl-4,5,6,7-tetrahydrothieno[2,3-C]pyridine derivatives” (THE BOARD OF REGENTS OF THE UNIVERSITY OF TEXAS SYSTEM, priority 2015, dated 2018)
